From patent publication US20120265121A1, “PHTHALOCYANINE-BASED ANTIFUNGAL AGENTS” (CASE WESTERN RESERVE UNIVERSITY, priority 2011, published 2012)

How the values were obtained:
[1] = system: C. albicans (strain SC-5134); test: Colony forming unit (CFU) phototoxicity assay; type: cell-based, Candida albicans
Procedure: Colonies Formation Assay: Briefly, the 1 ml of each treatment condition was diluted into 1:10,000, 1:50,000 or 1:100,000 and plated 100 μL onto Sabouraud dextrose agar plate (Becton Dickinson, New Jersey, USA). All plates were incubated at 37° C. and colonies were imaged and counted the following day for each plate/condition.
Pc 4-Photodynamic Treatment Conditions: The phthalocyanine photosensitizer Pc 4 was kindly provided by Dr. Malcolm E. Kenney (Department of Chemistry, Case Western Reserve University, Cleveland, Ohio, USA). Stock solutions (0.5 mM) of Pc 4 were prepared in N′,N′-dimethylformamide (DMF, ThermoFisher, Waltham, Mass., USA) and stored at 4° C. in the dark. C. albicans cultures were incubated with Pc 4 concentrations ranging from 0.1 to 1.0 μM in 1× PBS containing 10% FBS for at least 1 hr at 37° C. in the dark and subsequently irradiated with red light using a light-emitting diode array (EFOS, Mississauga, Ontario, Canada) at a fluence ranging from 1.0 to 2.0 J/cm^2 (1.0 mW/cm^2, λmax ˜670-675 nm) at room temperature.
Colony forming unit (CFU) phototoxicity assay: CFU assay was done as described by Chandra et al. with minor modifications. […] After 24 hours, colonies were counted by eye, and all the percentage of surviving cells from the Pc 4-PDT cultures was normalized against that of cultures exposed to Pc 4 or light alone. […]

[2] = system: C. albicans (strain SC-5134); test: FITC-labeled Annexin V staining of protoplasts (phosphatidylserine externalization); type: cell-based, Candida albicans; details: 1.0 μM Pc 4-PDT, 2.0 J/cm^2, within 4 to 5 hours of PDT
Procedure: Cells were then incubated for 4 hr before staining with FITC-labeled Annexin V. FIG. 4(a) provides confocal images of FITC-labeling of cells that had been treated with H2O2 or Pc 4-PDT. Scale bar, 20 μm. FIG. 4(b) provides a bar graph showing the results. For each experiment over 50-100 protoplasts cells were counted per sample. […] Cells were counted by eye using a Zeiss AxiovertTM S100 inverted epifluorescence microscope. Values represent the mean±S.E. from at least three independent experiments. […] Apoptosis Analyses: (A) FITC-labeled Annexin V staining-To assess the externalization of phosphatidylserine, protoplasts of C. albicans were stained with FITC-labeled Annexin V using the Annexin V-FLUOS staining kit (Roche, Germany) with minor modifications. Madeo et al., J Cell Biol 139:729-734 (1997); Park et al., Biochem Biophys Res Commun 394:170-172 (2010). Briefly, control and treated cells were washed three times with 1× PBS before incubating at 37° C. for 30 min in a protoplasting solution (50 mM KH2PO4, 5 mM EDTA and 50 mM DTT). Then cells were digested at 37° C. for 45 min in an enzyme solution (50 mM K2HPO4, 40 mM 2-mercaptoethanol, 3 μg/mL Chitinase, 1.8 μg/mL […], 0.15 mg/mL Zymolyase and 2.4 M sorbitol). 1× PBS was added to each sample and incubated for 30 min at room temperature in all experiments. Protoplasts were then incubated with 100 μL of Annexin V-FLUOS labeling solution for 15 min at 25° C. FITC-labeled Annexin V fluorescence was detected by both widefield (Leica DMI6000B microscope; Leica Microsystems, Inc., Bannockburn, Ill., USA) and confocal fluorescence microscopy.

[3] = system: C. albicans (strain SC-5134); test: DNA fragmentation by agarose gel electrophoresis; type: cell-based, Candida albicans
Procedure: Subsequently, C. albicans total chromosomal DNA was extracted using the MasterPure™ Yeast DNA Purification Kit (Epicentre Biotechnologies, Madison, Wis., USA) per the manufacturer's protocol. Extracted DNA concentrations were determined with a spectrophotometer (Nanodrop™ 3000, ThermoFisher Scientific, Waltham, Mass., USA) at a wavelength range of 260-280 nm. DNA (3.0 μg) was loaded onto a 1.0% (w/v) agarose gel (Bioexpress, Kaysbille, Utah, USA) impregnated with ethidium bromide (ThermoFisher, Waltham, Mass., USA) and subjected to electrophoresis. The gel was subsequently visualized using a UV transilluminator (VersaDoc™, Bio-Rad, Hercules, Calif., USA).

[4] = system: C. albicans (strain SC-5134); test: Chromatin condensation by confocal microscopy; type: cell-based, Candida albicans; details: highest dose of Pc 4-PDT or peroxide, 24 hr after treatment
Procedure: Confocal Microscopy: To investigate the uptake and localization of Pc 4, cells in standard growth medium plus 10% Fetal Bovine Serum (FBS) were loaded with 0.2 μM Pc 4 and incubated for 16 to 18 hr. Thirty minutes prior to imaging Pc 4, 50 nM MitoTracker Red (Invitrogen, Carlsbad, Calif., USA) or 50 μg/mL AlexaFluor 488-conjugated Concanavalin (Con) A (Invitrogen, Carlsbad, Calif., USA) and/or 10 μg/mL Hoechst 33342 (Invitrogen, Carlsbad, Calif., USA) was loaded onto cells. Five to 10 μL of stained cells were placed on a slide with a glass coverslip and all images acquired using an UltraVIEW VoX spinning disk confocal system (PerkinElmer, Waltham, Mass., USA), which was mounted on a Leica DMI6000B microscope (Leica Microsystems, Inc., Bannockburn, Ill., USA) equipped with a HCX PL APO 100×/1.4 oil immersion objective. Confocal images of Pc 4 fluorescence, MitoTracker Red, ConA (or FITC-labeled Annexin V) and Hoechst 33342 were collected using solid-state diode lasers, with 640-nm, 561-nm, 488-nm and 405-nm excitation light, respectively, and with appropriate emission filters.

[5] = mice, delivered systemically; cited from earlier work
[6] = light dose 50 J/cm^2; cited from earlier work

## CN(C)CCC[Si](C)(C)O[Si]1(O)n2c3c4ccccc4c2N=C2N=C(N=c4c5ccccc5c(n41)=NC1=NC(=N3)c3ccccc31)c1ccccc12 (centres unmarked) [Pc 4, HOSiPcOSi(CH3)2(CH2)3N(CH3)2]
[1]; 1.0 μM Pc 4, light at 2.0 J/cm^2 (670-675 nm)
  cell killing / reduction of cell survival (CFU): 4 logs
[1]; highest dose of Pc 4, no light, compared to untreated cells
  effect of photosensitizer alone on cell proliferation and cell death: neither the highest dose of photosensitizer alone nor light alone affected cell proliferation and cell death
[2]
  Annexin V positive cells: 20%
[3]; 0.4 μM Pc 4-PDT
  DNA fragmentation: clear evidence of DNA degradation
[3]; 0.6 μM Pc 4-PDT
  DNA fragmentation: matched that of the hydrogen peroxide positive control
[4]
  chromatin condensation: detected
[5]
  clearance compared with Photofrin: much more rapidly cleared than Photofrin
[6]
  tolerability: well-tolerated
